Test results published in the NIST ThermoML archive (doi:10.1021/acs.jced.7b00035).
± gives the expanded uncertainty stated by the source.

Key:
[1] = excess molar enthalpy (molar enthalpy of mixing); xn = mol fraction of the nth substance listed; settings: 100 kPa, Liquid, Flow calorimetry
[2] = xn = mol fraction of the nth substance listed; settings: 100 kPa, Liquid, Vibrating tube method

CCC(=O)CC [pentan-3-one] + O
Settings	excess molar enthalpy, [1] [kcal/mol]	mass density, [2] [kg/m3]
288.15 K, x1 = 0.000848	-0.00261 ± 0.000208	998.595 ± 0.034
288.15 K, x1 = 0.000849	-0.00264 ± 0.000208	998.589 ± 0.034
288.15 K, x1 = 0.001695	-0.00514 ± 0.000234	998.107 ± 0.035
288.15 K, x1 = 0.001696	-0.0052 ± 0.000237	998.104 ± 0.035
288.15 K, x1 = 0.00254	-0.00771 ± 0.000287	997.609 ± 0.037
288.15 K, x1 = 0.002542	-0.00769 ± 0.000287	997.616 ± 0.037
288.15 K, x1 = 0.003385	-0.0102 ± 0.000335	997.144 ± 0.039
288.15 K, x1 = 0.003386	-0.0102 ± 0.000335	997.139 ± 0.039
288.15 K, x1 = 0.004227	-0.0127 ± 0.000382	996.667 ± 0.041
288.15 K, x1 = 0.004229	-0.0126 ± 0.000382	996.682 ± 0.041
288.15 K, x1 = 0.005069	-0.015 ± 0.00043	996.228 ± 0.044
288.15 K, x1 = 0.005071	-0.015 ± 0.00043	996.221 ± 0.044
298.15 K, x1 = 0.000847	-0.00214	996.504 ± 0.035
298.15 K, x1 = 0.001693	-0.00429 ± 0.000222	995.96 ± 0.036
298.15 K, x1 = 0.001694	-0.00426 ± 0.000222	995.958 ± 0.036
298.15 K, x1 = 0.002537	-0.00626 ± 0.000263	995.458 ± 0.038
298.15 K, x1 = 0.002539	-0.0063 ± 0.000263	995.442 ± 0.038
298.15 K, x1 = 0.00338	-0.00823 ± 0.000287	994.944 ± 0.041
298.15 K, x1 = 0.003383	-0.0083 ± 0.000287	994.931 ± 0.041
298.15 K, x1 = 0.004222	-0.0103 ± 0.000335	994.42 ± 0.044
298.15 K, x1 = 0.004225	-0.0103 ± 0.000335	994.423 ± 0.044
298.15 K, x1 = 0.005064	-0.0123 ± 0.000382	993.924 ± 0.061
298.15 K, x1 = 0.005066	-0.0123 ± 0.000382	993.902 ± 0.061
308.15 K, x1 = 0.000848	-0.00167 ± 0.000198	993.46 ± 0.036
308.15 K, x1 = 0.000849	-0.00169 ± 0.000198	993.449 ± 0.036
308.15 K, x1 = 0.001695	-0.00332 ± 0.000213	992.887 ± 0.038
308.15 K, x1 = 0.001696	-0.00332 ± 0.000213	992.873 ± 0.038
308.15 K, x1 = 0.00254	-0.00493 ± 0.000232	992.322 ± 0.04
308.15 K, x1 = 0.002543	-0.00497 ± 0.000232	992.311 ± 0.04
308.15 K, x1 = 0.003384	-0.00646 ± 0.000263	991.77 ± 0.043
308.15 K, x1 = 0.003387	-0.00641 ± 0.000263	991.774 ± 0.043
308.15 K, x1 = 0.004226	-0.00797 ± 0.000287	991.241 ± 0.46
308.15 K, x1 = 0.004231	-0.00798 ± 0.000287	991.216 ± 0.46
308.15 K, x1 = 0.005069	-0.00955 ± 0.000382	990.666 ± 2.4
308.15 K, x1 = 0.005074	-0.00957 ± 0.000382	990.66 ± 2.4
318.15 K, x1 = 0.000849	-0.00121 ± 0.000196	989.61 ± 0.038
318.15 K, x1 = 0.00085	-0.00122 ± 0.000196	989.603 ± 0.038
318.15 K, x1 = 0.001697	-0.00241 ± 0.000206	989.005 ± 0.04
318.15 K, x1 = 0.001698	-0.00241 ± 0.000206	988.992 ± 0.04
318.15 K, x1 = 0.002543	-0.00355 ± 0.000213	988.399 ± 0.078
318.15 K, x1 = 0.002544	-0.00357 ± 0.000215	988.396 ± 0.042
318.15 K, x1 = 0.003388	-0.00462 ± 0.000227	987.821 ± 0.045
318.15 K, x1 = 0.00339	-0.00467 ± 0.000227	987.82 ± 0.045
318.15 K, x1 = 0.004231	-0.00576 ± 0.000239	987.229 ± 0.049
318.15 K, x1 = 0.004233	-0.00573 ± 0.000239	987.234 ± 0.049
318.15 K, x1 = 0.005073	-0.00678 ± 0.000263	986.636 ± 0.053
318.15 K, x1 = 0.005076	-0.00682 ± 0.000263	986.636 ± 0.053
